{
  "source": "patent US20240271096A1",
  "about": "“EFFICIENT DIFFERENTIATION OF SECOND HEART FIELD CARDIAC PROGENITOR CELLS AND RIGHT VENTRICLE CARDIOMYOCYTES FROM HUMAN PLURIPOTENT STEM CELLS” (Wisconsin Alumni Research Foundation, priority 2023, published 2024)",
  "key": {"[1]": {"test_system": "HES3-TBX5-TdTomato^+/W/NKX2-5^eGFP/W reporter hESC line", "assay": "NKX2-5-eGFP and TBX5-tdTomato reporter expression during GiWi cardiac differentiation (fluorescence microscopy)", "assay_type": "cell-based, human", "from_the_text": "Human iPSCs (hiPSCs) were established from a healthy donor (FIG. 1), 201B7 hiPSCs (RIKEN BRC, Tsukuba, Japan), and HES3-TBX5-TdTomato^+/W/NKX2-5^eGFP/Wreporter hESCs that were a kind gift from Dr. Reza Ardehali, UCLA Geffen School of Medicine (Pezhouman et al., 2022, Cardiovasc Res. 118(3):828-43), were used. HiPSCs were maintained on iMatrix-511 (Matrixome, Osaka, Japan)-coated 6-well plates (Corning, Glendale, Arizona, United States) in StemFit AK02N (Ajinomoto, Tokyo, Japan) and passaged every 7 days.\nHESCs were maintained on Matrigel Growth Factor Reduced Basement Membrane Matrix (Corning)-coated 6-well plates (Corning) in StemFlex Medium (Thermo Fisher Scientific, Waltham, MA, United States) and passaged every 3-4 days. StemPro Accutase Cell Dissociation Reagent (Thermo Fisher Scientific) was used for dissociation. 10 μmol/L Y27632 (Tocris, Bristol, United Kingdom) was used for improvement of cell survival for 24 hours after seeding. Mycoplasma tests were performed for all the cell culture in this study.\nFor LV-cardiomyocyte differentiation, cardiac differentiation was performed according to the protocol published by (Lian et al., 2012, Proc Natl Acad Sci USA 109:E1848-57). Cells were dissociated with StemPro Accutase Cell Dissociation Reagent at 37° C. for 5 minutes. HESCs were seeded on Matrigel-coated 24-well plates (Corning) in StemFlex Medium supplemented with 10 μmol/L Y-27632. HiPSCs were seeded on iMatrix-511-coated 12-well plates (Corning) in StemFit AK02N supplemented with 10 μmol/L Y-27632 at seeding densities of 1×10^5 cells/cm^2 for hESCs and 1.25-2.5×10^4 cells/cm^2 for hiPSCs. Cells were cultured for 4 days until the start of differentiation (day 0). On day 0, the medium was changed to RPMI 1640 Medium (Thermo Fisher Scientific) supplemented with B-27 Supplement minus insulin (Thermo Fisher Scientific) (RPMI/B27-insulin) or B-27 Supplement with insulin (Thermo Fisher Scientific), and 12 μmol/L CHIR 99021 (SelleckChem, Houston, TX, United States), and the cells incubated in this medium for 24 h (day 1). On day 1, the medium was changed to RPMI/B27-insulin. To enhance cardiac differentiation, 50 μmol/L 2-O-α-D-glucopyranosyl-L-ascorbic acid (Tokyo Chemical Industry, Tokyo, Japan) was added on day 1 only for hiPSCs (Burridge et al., 2014 Nat Methods, 11:855-860). On day 3, the medium was changed to RPMI/B27-insulin supplemented with 5 μmol/L IWP2 (SelleckChem) and on day 5, the medium was changed to 1 ml RPMI/B27-insulin. From day 7, the cells were cultured with RPMI/B27-insulin, and the cells were fed every other day. On day 12, the cells were washed with PBS (Thermo Fisher Scientific) and cultured with DMEM or RPMI, no glucose supplemented with 8 mmol/L L-(+)-Lactic acid (Merck) (Tohyama et al., 2013 Cell Stem Cell, 12:127-37). The medium was changed every other day until day 17. After day 17, the cells were cultured with RPMI/B27 and fed every 2 to 3 days. For long-term culture, the cells were dissociated with TrypLE™ Select Enzyme (10×) (Thermo Fisher Scientific) at 37° C. for 15-20 minutes and seeded on Matrigel- or iMatrix-511-coated plates. For RV-cardiomyocyte induction, Dorsomorphin 2HCl (SelleckChem), dorsomorphin homologue 1 (DMH1) (SelleckChem), or 3 μg/L insulin were used from day 0 to day 1. For FIG. 15A and FIG. 15B, dorsomorphin (DM) or 3 μg/L insulin were added on day 0 (for 24 hours), 1, 3, or 5 (for 48 hours)."}, "[2]": {"test_system": "human induced pluripotent stem cell-derived cardiac progenitor cells", "assay": "Quantitative PCR of heart field and cardiac markers in differentiating hiPSCs (day 0 to day 7)", "assay_type": "cell-based", "details": "B-27 containing insulin day 0 to day 1; qPCR day 7; vs control cells", "procedure": "For LV-cardiomyocyte differentiation, cardiac differentiation was performed according to the protocol published by (Lian et al., 2012, Proc Natl Acad Sci USA 109:[…]-57). Cells were dissociated with StemPro Accutase Cell Dissociation Reagent at 37° C. for 5 minutes. HESCs were seeded on Matrigel-coated 24-well plates (Corning) in StemFlex Medium supplemented with 10 μmol/[…] were seeded on iMatrix-511-coated 12-well plates (Corning) in StemFit A[…] supplemented with 10 μmol/[…] at seeding densities of 1×10^5 cells/cm^2 for hESCs and 1.25-2.5×10^4 cells/cm^2 for hiPSCs. Cells were cultured for 4 days until the start of differentiation (day 0). On day 0, the medium was changed to RPMI 1640 Medium (Thermo Fisher Scientific) supplemented with B-27 Supplement minus insulin (Thermo Fisher Scientific) (RPMI/B27-insulin) or B-27 Supplement with insulin (Thermo Fisher Scientific), and 12 μmol/L CHIR 99021 (SelleckChem, Houston, TX, United States), and the cells incubated in this medium for 24 h (day 1). On day 1, the medium was changed to RPMI/B27-insulin. […] PowerUpTM SYBR Green Master Mix (Thermo Fisher Scientific) and QuantStudio 1 (Thermo Fisher Scientific) were used for quantitative PCR (q-PCR), wherein q-PCR data were processed using the ΔΔCT method. […] Data were analyzed with the web-based tool of GeneGlobe Data Analysis Center (Qiagen)."}, "[3]": {"details": "3 μg/mL insulin on day 0, read day 13"}, "[4]": {"details": "B-27 supplement containing insulin on differentiation day 0, read day 7 (cardiac progenitor stage)"}, "[5]": {"details": "B-27 supplement containing insulin on differentiation day 0, read day 14 (cardiomyocyte stage)"}},
  "data": [
    {"substance": "insulin", "values": [
      {"measurement": "Nkx2.5-eGFP expression", "setting": "[1]; [3]", "value": "strong"},
      {"measurement": "TBX5-tdTomato expression", "setting": "[1]; [3]", "value": "without TBX5-tdTomato expression"},
      {"measurement": "eGFP and TBX5-tdTomato expression", "setting": "[1]; 10 μg/mL insulin on day 0, read day 13", "value": "very low"},
      {"measurement": "TBX5-tdTomato expression, dose dependence", "setting": "[1]; 0.1, 0.3, 1, and 3 μg/mL insulin on day 0, read day 13", "value": "decreased with increasing doses"},
      {"measurement": "NKX2-5-eGFP expression", "setting": "[1]; [4]", "value": "low"},
      {"measurement": "TBX5-tdTomato expression", "setting": "[1]; [4]", "value": "low"},
      {"measurement": "NKX2-5-eGFP expression", "setting": "[1]; [5]", "value": "high"},
      {"measurement": "TBX5-tdTomato expression", "setting": "[1]; [5]", "value": "low"},
      {"measurement": "expression levels of FHF markers (TBX5 and HCN4)", "setting": "[2]", "value": "lower expression levels"},
      {"measurement": "mRNA expression levels of SHF markers (ISL1 and CXCR4)", "setting": "[2]", "value": "higher mRNA expression levels"}
    ]}
  ]
}
